The structures appear in SMILES notation. Where two headings read alike, the source gives them in different places.

The test system of data set [1] is Clostridioides difficile ATCC 43255. To be noted: for onset of action: compared between treatment groups; for cure rate: no recurrence over 14 days after inoculation; for clinical severity and recovery: total clinical score and daily weights, compared to infection control group; for survival: treatment study day 0 to day 4, followed 14 days after inoculation, 10 mice per group.
Text: Thirty C57BL/6 female mice (18-22 g) fitted with duodenal catheters externalized and fitted with access button ports were purchased from Charles River Laboratories and singly housed in a temperature and humidity-controlled room with a 12-hour light cycle. The mice were divided into 3 groups of 10. All procedures used in these experimental protocols were in compliance with the Animal Welfare Act, the Guide for the Care and Use of Laboratory Animals, and the Office of Laboratory Animal Welfare.
The mice were pretreated with an antibiotic cocktail in their drinking water for 8 consecutive days. This antibiotic cocktail was composed of 1% glucose, 500 mcg/mL kanamycin, 44 mcg/mL gentamicin, 1062.5 units per milliliter colistin, 269 mcg/mL metronidazole, 156 mcg/mL ciprofloxacin, 100 mcg/mL ampicillin, and 56 mcg/mL vancomycin. The antibiotic cocktail and drinking water was replaced every 2 to 3 days. Five days prior to infection the antibiotic water was removed and normal drinking water was provided to the animals. Three days prior to infection the animals received a single dose of clindamycin 10 mg per kilogram via oral administration in a volume of 10 mL per kilogram.
On study Day 0 mice were inoculated with the bacterial suspension of 5×10^5 CFU Clostridioides difficile ATCC 43255 via oral gavage. Eight hours after inoculation administration of vehicle, antibiotic control, and test article was initiated according to the following. The vehicle a.k.a. infection control group of 10 mice received 80 μL per hour 100% pure nitrogen gas via duodenal catheter. The infection control group of 10 mice received 50 mg/kg vancomycin via oral gavage once daily. […] Administration was continued from study day 0 to study day 4, a total of 5 days. The mice were followed for 14 days after inoculum recording daily weights and clinical observations. Animals that appeared severely moribund were euthanized. At the end of the study all animals were humanely euthanized.

The conditions of data set [2]: up to the maximum bolus tested, 200 microliters every 6 hours (8 mL/kg per bolus; 32 mL/kg/day). Here is the method: In a separate experiment using the above conditions the tolerance of bolus injection of 100% oxygen gas was tested.

For `O=O` [EAT, oxygen], the “adverse effects due to gas infusion” value in data set [1] (efficacy experiments, infusion 3.2 mL/kg/hr, 76.8 mL/kg/day via duodenal catheter) was “no adverse effects”. Moreover, in data set [1] (mouse CDI model), the onset of action result was “slower onset of action”; the cure rate was 100%; the “clinical severity and recovery” value is “mildly ill compared to the infection control group, recover rapidly”; the survival is 100%. The “animals showing signs of infection in the 2nd week after inoculation and treatment (recurrence)” value in data set [1] (mouse CDI model, days 8-14, after treatment was complete) is given as “no recurrent infections”. Moreover, the “clinical severity and recovery” value in data set [1] (mouse CDI model, listed as Enteric aerobization therapy) is “reduces the severity of disease, accelerates recovery”. The “adverse effects of bolus injection” value in data set [2] is “No adverse effects”.
Turning to `CN[C@H](CC(C)C)C(=O)N[C@H]1C(=O)N[C@@H](CC(N)=O)C(=O)N[C@H]2C(=O)N[C@H]3C(=O)N[C@H](C(=O)N[C@H](C(=O)O)c4cc(O)cc(O)c4-c4cc3ccc4O)[C@H](O)c3ccc(c(Cl)c3)Oc3cc2cc(c3O[C@@H]2O[C@H](CO)[C@@H](O)[C@H](O)[C@H]2O[C@H]2C[C@](C)(N)[C@H](O)[C@H](C)O2)Oc2ccc(cc2Cl)[C@H]1O` [vancomycin, reference compound], in data set [1] (mouse CDI model), the onset of action entry is on record as “more rapid onset of action”, the cure rate was 30% and the survival was 100%.

The record behind these values is patent publication US12239662B2, “Compositions for inhibiting anaerobic microorganisms” (LPOXY THERAPEUTICS, INC, priority 2020, dated 2025).
